# Source: patent publication US6548540B2, “Method of treating cancer using dithiocarbamate derivatives” (Charlotte-Mecklenburg Hospital Authority, priority 1998, dated 2003)
# Legend:
# p53 = assay: Immunoblot for p53; assay type: cell-based, human; conditions: cell lines studied; data not shown
# Experimental: Cells were lysed and proteins were isolated and quantitated by immunoassay as previously detailed using 2 μg/ml of primary rabbit polyclonal antibodies against human bcl-2, p53, p21^WAF1/CiP1, cyclin A and cyclin B1, and peroxidase-labeled donkey polyclonal anti-rabbit IgG. Cells were placed on ice, washed twice with cold DPBS, scraped into 0.5 ml boiling buffer (10% [vol/vol] glycerol and 2% [wt/vol] sodium dodecyl sulfate [SDS] in 83 mM Tris, pH 6.8) and sheared by four passages through a pipette. Aliquots were removed for protein determination, using the BCA protein assay (Pierce). After 10% β-mercaptoethanol and 0.05% bromophenol blue were added, lysates were boiled for 5 min and stored at −80° C. until immunoblotting was performed. Proteins in defrosted samples were separated by SDS-polyacrylamide gel electrophoresis on 12% polyacrylamide gels (15 μg protein/lane) and electrotransferred to 0.45 μm Hybond ECL nitrocellulose membranes (Amersham Life Sciences) using the wet transblot method in transfer buffer (0.025 M Tris, 0.192 M glycine, 2.6 mM SDS, and 20%[vol/vol] methanol; pH 8.8) at 100 volts for 1 hour. […] Immunoblots were rinsed again as above and detected via an enhanced chemiluminescence method (ECL Western blotting detection system, Amersham Life Science, Buckinghamshire, England). […]
# [1] = molecular target: T1, transcription factor binding to CRE (ATF2 containing complex II) (Homo sapiens, UniProt P15336); assay: EMSA, agents added directly to binding reaction; conditions: for transcription factor binding to CRE: DTT 2.5 mM; for transcription factor binding to CRE, effect with GSH instead of DTT: GSH 3.0 mM as reducing agent
# T1 construct: endogenous in cells; host or cells: M1619 human melanoma cells, crude nuclear protein extract
# T1 sequence (P15336 1-505): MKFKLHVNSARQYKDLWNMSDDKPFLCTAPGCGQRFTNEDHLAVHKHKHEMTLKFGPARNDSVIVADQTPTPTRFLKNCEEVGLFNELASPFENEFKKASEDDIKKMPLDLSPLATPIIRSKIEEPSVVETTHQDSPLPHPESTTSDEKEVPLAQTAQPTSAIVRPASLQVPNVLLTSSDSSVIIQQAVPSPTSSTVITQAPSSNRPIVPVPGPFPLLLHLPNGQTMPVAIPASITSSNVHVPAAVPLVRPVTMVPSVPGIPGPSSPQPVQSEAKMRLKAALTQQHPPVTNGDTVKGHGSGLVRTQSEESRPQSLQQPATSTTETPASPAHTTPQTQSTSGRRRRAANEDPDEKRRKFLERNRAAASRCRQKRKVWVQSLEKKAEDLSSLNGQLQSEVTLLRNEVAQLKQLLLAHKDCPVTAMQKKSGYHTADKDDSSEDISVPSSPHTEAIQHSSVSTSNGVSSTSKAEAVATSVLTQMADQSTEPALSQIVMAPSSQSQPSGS
# Experimental: This dose was chosen to approximate the steady state plasma and tissue concentrations of drug in human subjects on chronic therapy with this agent. Disulfiram was solubilized in dimethylsulfoxide (DMSO) so that the final concentration of DMSO was less than 0.3-0.5%. Equal volumes of DMSO were added to control experiments. Nuclear protein was harvested and electrophoretic mobility gel shift assays were performed using DNA consensus binding sequence for the cyclic-AMP responsive element (CRE) as outlined below. […] EMSAs were performed using consensus oligonucleotides ([NT] and 3'-[NT]5') for the cyclic-AMP responsive element CRE (ProMega, Madison, Wis.), end-labeled by phosphorylation with [γ^32P]-ATP and T4 polynucleotide kinase. DNA-protein binding reactions were performed with 2 μg of nuclear protein (as determined by the Pierce method) and 30-80,000 cpm of ^32P-end-labelled double-stranded DNA probe in 10 mM Tris-HCl, pH 7.5, 50 mM NaCl, 0.5 mM EDTA, 0.5 mM DTT (except where indicated), 1 mM MgCl2, 50 μg/ml poly dI-dC, and 4% glycerol. All components of the binding reaction with the exception of labeled probe were combined and incubated at room temperature for 10 minutes before addition of labeled probe and incubation for an additional 20 minutes. To determine if inhibition of transcription factor binding to CRE could be attributed to direct transcription factor modification by disulfiram and copper, we studied the effect of adding each agent directly to the binding reaction performed with nuclear protein from untreated […] cells. Therein electrophoretic mobility shift assays (EMSAs) were performed showing that addition of disulfiram plus copper to the binding reaction reduces DNA binding to CRE. […] In lanes 1-5, DTT (2.5 mM) was added to the binding reaction as a reducing agent, whereas in lane 6-9, GSH (3.0 mM) was used.
# M1619 melanoma cells = assay: DNA cell cycle by flow cytometry; assay type: cell-based, human; conditions: 24 hours
# Experimental: To study the effect of disulfiram on the DNA cell cycle, cells were grown to confluence in 25 cm^2 plastic flasks and treated for with 10% FBS plus DMSO vehicle, FBS and DMSO vehicle plus 250 μg/ml ceruloplasmin as a source of copper, FBS plus 5 μM disulfiram or FBS plus 5 μM disulfiram and 250 μg/ml ceruloplasmin. After 24 hours cells were trypsinized, washed twice in cold DPBS with 1 mM EDTA and 1% BSA, fixed 30 minute in ice-cold 70% ethanol, and stained by incubation for 30 minutes at 37° C. in a 10 μg/ml solution of propidium iodide in DPBS and 1 mg/ml RNase A. DNA cell cycle measurements were made using a FACStar^PLUS Flow Cytometer (Becton-Dickenson, San Jose, Calif.).
# The antiproliferative activity of dithiocarbamate disulfides depends on complexation with copper. PDTC induces apoptosis in normal thymocytes that is mediated by complexation of copper from fetal bovine serum in the medium and subsequent facilitation of copper transport into cells. […] Unsynchronized M1619 melanoma cells were grown in the presence of DMSO vehicle (A), 5 μM disulfiram (B), or 5 μM disulfiram plus 250 μg/ml ceruloplasmin (Cerulo) as a source of copper (C). Twenty-four hours later, cells were harvested and flow cytometric analysis was performed. The proportion of nuclei in each phase of the cell cycle (brackets) was determined with MODFIT DNA analysis software. Disulfiram increases the portion of cells in S phase. The combination of disulfiram and ceruloplasmin further increases the number of cells in S phase, prevents progression into the G2-M cell cycle and induces apoptosis.
# [2] = 5 μM disulfiram plus 250 μg/ml ceruloplasmin
structure (smiles),measurement,setting,value
"CCN(CC)C(=S)SSC(=S)N(CC)CC [Disulfiram, tetraethylthiuram disulfide]",expression of p53,p53,no consistent effect
same,transcription factor binding to CRE,[1]; disulfiram 5 μM alone added to binding reaction,reduced
same,"transcription factor binding to CRE, effect with GSH instead of DTT",[1]; disulfiram 5 μM alone,more pronounced
same,"transcription factor binding to CRE, effect with GSH instead of DTT",[1]; disulfiram 5 μM and 1.6 μM CuSO4,more pronounced
same,transcription factor binding to CRE,[1]; disulfiram 5 μM and 1.6 μM CuSO4 added to binding reaction,reduced
same,apoptotic cells,M1619 melanoma cells; [2],6%
same,cells in G2-M,M1619 melanoma cells; [2],none
same,cells in S phase,M1619 melanoma cells; [2],Over two-thirds
same,cell cycle distribution,M1619 melanoma cells; 5 μM disulfiram,increases the portion in S phase
